# Source: patent US20220249447A1, “CF3-, OCF3-, SCF3-, and SF5-Containing Antibacterial Agents” (Purdue Research Foundation, priority 2019, published 2022)
# Read-outs that look alike come from different tables or passages of the source.
# Assays:
# [1] = tested on: Neisseria gonorrhea strain 181; assay: MIC against Neisseria gonorrhea strain 181; type: cell-based
# Procedure: (§1) Bacteria were cultured in cation-adjusted Mueller Hinton Broth (for strains in Tables 1-3) or Brain Heart Infusion broth (for Enterococcus faecium) or Tryptic Soy Broth (all other bacteria) in a 96-well plate at 37° C. for at least 20 hours. The MIC was classified as the lowest concentration where no visual growth of bacteria was observed. The minimum bactericidal concentration (MBC) was tested by spotting 4 μL from wells with no growth onto Tryptic Soy Agar (TSA) plates. Plates were incubated at 37° C. for at least 18 hours before recording the MBC.
# S. aureus = assay: MIC, broth microdilution, S. aureus; type: cell-based; conditions: Staphylococcus aureus
# Procedure: as §1
# MRSA ATCC 33592 = assay: MIC, broth microdilution, MRSA ATCC 33592; type: cell-based, methicillin-resistant S. aureus; conditions: Staphylococcus aureus
# Procedure: All MRSA isolates were acquired from BEI Resources. The remaining bacteria were purchased from the American Type Culture Collection (ATCC).
# as §1
# [2] = tested on: L. monocytogenes ATCC 19115; assay: MIC, broth microdilution, L. monocytogenes ATCC 19115; type: cell-based; conditions: Listeria monocytogenes, ATCC19115
# Procedure: as §1
# [3] = tested on: C. difficile NR-13432 (isolate 6); assay: MIC against C. difficile NR-13432 (isolate 6); type: cell-based
# Procedure: as §1
# C. difficile ATCC 43255 = assay: MIC against C. difficile ATCC 43255; type: cell-based
# Procedure: as §1
# [4] = tested on: C. difficile ATCC BAA 1801; assay: MIC against C. difficile ATCC BAA 1801; type: cell-based
# Procedure: as §1
# [5] = tested on: C. difficile NR-32904 (P30); assay: MIC against C. difficile NR-32904 (P30); type: cell-based
# Procedure: as §1
# VRE ATCC 51575 = assay: MIC, broth microdilution, VRE ATCC 51575; type: cell-based; conditions: Enterococcus
# Procedure: as §1
# [6] = tested on: C. difficile NR-32883 (P2); assay: MIC against C. difficile NR-32883 (P2); type: cell-based
# Procedure: as §1
# [7] = tested on: C. difficile NR-32891 (P13); assay: MIC against C. difficile NR-32891 (P13); type: cell-based
# Procedure: as §1
# [8] = tested on: C. difficile NR-13435 (isolate 9); assay: MIC against C. difficile NR-13435 (isolate 9); type: cell-based
# Procedure: as §1
# [9] = tested on: C. difficile NR-32895 (P19); assay: MIC against C. difficile NR-32895 (P19); type: cell-based
# Procedure: as §1
# E. faecalis ATCC 29212 = assay: MIC, broth microdilution, E. faecalis ATCC 29212; type: cell-based; conditions: Enterococcus faecalis, ATCC29212
# Procedure: as §1
# MRSA USA300 cells = assay: Time-kill assay; type: cell-based
# Procedure: The time-kill analysis was performed as previously described^29. […] Aliquots (100 μL) were collected from each treatment after 0, 2, 4, 8, 12, and 24 hours of incubation at 37° C. and subsequently serially diluted in phosphate-buffered saline (PBS). Bacteria were then transferred to TSA plates and incubated at 37° C. for 18-20 hours before viable CFU/mL was determined (see FIG. 2).
# [10] = Clostridioides difficile; read-out: MIC C. difficile NR-13432 (isolate 6)
# [11] = Clostridioides difficile, ATCC43255; read-out: MIC C. difficile ATCC 43255
# [12] = Clostridioides difficile, BAA1801; read-out: MIC C. difficile ATCC BAA 1801
# [13] = Clostridioides difficile; read-out: MIC C. difficile NR-32904 (P30)
# [14] = Clostridioides difficile; read-out: MIC C. difficile NR-32883 (P2)
# [15] = Clostridioides difficile; read-out: MIC C. difficile NR-32891 (P13)
# [16] = Clostridioides difficile; read-out: MIC C. difficile NR-13435 (isolate 9)
# [17] = Clostridioides difficile; read-out: MIC C. difficile NR-32895 (P19)
SMILES,MIC [1],MIC (S. aureus),MIC (MRSA ATCC 33592),"MIC [3, 10]",MIC (C. difficile ATCC 43255; [11]),"MIC [4, 12]","MIC [5, 13]","MIC [6, 14]","MIC [7, 15]","MIC [8, 16]","MIC [9, 17]",further results
"O=C(Nc1nnc(-c2cccc(C(F)(F)F)c2)o1)c1ccc(SC(F)(F)F)cc1 [HSGN-253, N-(5-(3-(trifluoromethyl)phenyl)-1,3 ,4-oxadiazol-2-yl)-4-((trifluoromethyl)thio)benzamide]",2 µg/mL,0.25 µg/mL,0.125 µg/mL,,,,,,,,,
"O=C(Nc1nnc(-c2ccc(Cl)s2)o1)c1ccc(SC(F)(F)F)cc1 [HSGN-210, N-(5-(5-chlorothiophen-2-yl)-1,3,4-oxadiazol-2-yl)-4-((trifluoromethyl)thio)benzamide]",0.5 µg/mL,0.25 µg/mL,0.25 µg/mL,0.015 µg/mL,0.007 µg/mL,0.06 µg/mL,0.06 µg/mL,0.003 µg/mL,0.06 µg/mL,0.003 µg/mL,0.03 µg/mL,MIC [2]: 0.25 µg/mL; MIC (VRE ATCC 51575): 0.5 µg/mL; MIC (E. faecalis ATCC 29212): 0.5 µg/mL
"O=C(Nc1nnc(-c2cccc(Cl)c2)o1)c1ccc(SC(F)(F)F)nc1 [HSGN-247, N-(5-(3-chlorophenyl)-1,3,4-oxadiazol-2-yl)-6-((trifluoromethyl)thio)nicotinamide]",0.125 µg/mL,0.5 µg/mL,0.5 µg/mL,,,0.015 µg/mL,,,,,,
"O=C(Nc1nnc(-c2ccc(F)cc2F)o1)c1ccc(SC(F)(F)F)cc1 [HSGN-219, N-(5-(2,4-difluorophenyl)-1,3,4-oxadiazol-2-yl)-4-((trifluoromethyl)thio)benzamide]",2 µg/mL,0.5 µg/mL,0.5 µg/mL,0.03 µg/mL,0.06 µg/mL,0.015 µg/mL,0.06 µg/mL,0.003 µg/mL,0.125 µg/mL,0.007 µg/mL,0.06 µg/mL,
"CN[C@H](CC(C)C)C(=O)N[C@H]1C(=O)N[C@@H](CC(N)=O)C(=O)N[C@H]2C(=O)N[C@H]3C(=O)N[C@H](C(=O)N[C@H](C(=O)O)c4cc(O)cc(O)c4-c4cc3ccc4O)[C@H](O)c3ccc(c(Cl)c3)Oc3cc2cc(c3O[C@@H]2O[C@H](CO)[C@@H](O)[C@H](O)[C@H]2O[C@H]2C[C@](C)(N)[C@H](O)[C@H](C)O2)Oc2ccc(cc2Cl)[C@H]1O [Vancomycin, reference compound]",,,,,,,,,,,,"MIC ([3]; Clostridioides difficile, read-out: MIC C. difficile NR-13432 (isolate 6)): 0.25 µg/mL; MIC (C. difficile ATCC 43255; Clostridioides difficile, ATCC43255, read-out: MIC C. difficile ATCC 43255): 1 µg/mL; MIC ([4]; Clostridioides difficile, BAA1801, read-out: MIC C. difficile ATCC BAA 1801): 1 µg/mL; MIC ([5]; Clostridioides difficile, read-out: MIC C. difficile NR-32904 (P30)): 1 µg/mL; MIC ([6]; Clostridioides difficile, read-out: MIC C. difficile NR-32883 (P2)): 0.5 µg/mL; MIC ([7]; Clostridioides difficile, read-out: MIC C. difficile NR-32891 (P13)): 0.5 µg/mL; MIC ([8]; Clostridioides difficile, read-out: MIC C. difficile NR-13435 (isolate 9)): 1 µg/mL; MIC ([9]; Clostridioides difficile, read-out: MIC C. difficile NR-32895 (P19)): 1 µg/mL; Bactericidal/Bacteriostatic (MRSA USA300 cells): Bactericidal"
"COc1c(Cl)cc(-c2nnc(NC(=O)c3ccc(SC(F)(F)F)cc3)o2)cc1Cl [HSGN-265, N-(5-(3,5-dichloro-4-methoxyphenyl)-1,3,4-oxadiazol-2-yl)-4-((trifluoromethyl)thio)benzamide]",2 µg/mL,0.0625 µg/mL,0.0625 µg/mL,,,,,,,,,
"O=C(Nc1nnc(-c2cccc(F)c2)o1)c1ccc(SC(F)(F)F)cc1 [HSGN-205, N-(5-(3-fluorophenyl)-1,3,4-oxadiazol-2-yl)-4-((trifluoromethyl)thio)benzamide]",0.25 µg/mL,0.5 µg/mL,0.25 µg/mL,0.03 µg/mL,0.003 µg/mL,0.03 µg/mL,0.015 µg/mL,0.003 µg/mL,0.03 µg/mL,0.007 µg/mL,0.007 µg/mL,MIC [2]: 1 µg/mL; MIC (VRE ATCC 51575): 4 µg/mL; MIC (E. faecalis ATCC 29212): 2 µg/mL
"O=C(Nc1nnc(-c2cccc(Br)c2)o1)c1ccc(SC(F)(F)F)cc1 [HSGN-217, N-(5-(3-bromophenyl)-1,3,4-oxadiazol-2-yl)-4-((trifluoromethyl)thio)benzamide]",0.25 µg/mL,0.5 µg/mL,0.5 µg/mL,0.06 µg/mL,0.06 µg/mL,0.06 µg/mL,0.125 µg/mL,0.06 µg/mL,0.125 µg/mL,0.06 µg/mL,0.125 µg/mL,
